Source: publication PMC12386934, “Characteristics and Potential of KSL, KSL-W, and Dadapin-1 Antimicrobial Peptides for Preventing Infections of Orthopedic Prosthetic Devices: Identifying the Most Robust Candidate” (International Journal of Molecular Sciences, 2025)
Values after ≈ are worked out from the molar mass of the structure shown. Where a SMILES comes first, the peptide text is derived from it.

How the values were obtained:
Type in all cases: cell-based
[1] = test system: S. epidermidis cra4029 (SE 02)
From the text: (§1) The experimental scheme reported in Figure 6 helped to simplify and optimize the in vitro testing of the antibacterial activity of the different AMPs. The initial transparent microtiter plate for the determination of the minimum inhibitory concentration (MIC) by optical density (OD) measurement was conveniently used as a starting point not only for the alterative determination of the MIC by luminescence but also for the minimum bactericidal concentration (MBC) and for the minimum biofilm inhibitory concentration (MBIC), as explained below. For every test peptide, at least three independent experiments were performed on each bacterial strain per test condition (100% MHB and 20% MHB). The sole exception to this rule was when MIC values were on rare occasions found to be greater than 500 µg/mL. Under these circumstances, two consecutive experiments were performed to confirm the results. In this case, the antibacterial activity was considered insignificant and the third experiment was generally considered unnecessary.
(§2) The antibacterial properties of the test AMPs were assayed under two distinct conditions of bacterial culture: (i) with bacteria cultured in undiluted Mueller–Hinton II Broth (MHB II) and (ii) with bacteria cultured in diluted MHB II as earlier described in Campoccia et al.. Briefly, a few colonies of each bacterial strain, taken from overnight cultures on Mueller–Hinton Agar plates (MHA, PO50007A, ThermoScientific, Thermo Fisher Scientific, Segrate, Italy), were resuspended in Mueller–Hinton II Broth (MHB II, 24107, Liofilchem, Roseto degli Abruzzi, Italy), either undiluted or at a 20% dilution in deionized water. The concentration of bacteria was adjusted to approximately 10^8 CFU/mL, as estimated by optical density reading at 625 nm, using a Hewlett Packard G1103A spectrophotometer (Waldbronn, Germany). The bacterial suspension was further diluted 1:100 in 100% or 20% MHB II.
(§3) Serial 1:2 dilutions of all the test peptides were prepared in sterile deionized water starting from a stock solution of 1 mg/mL. Microtiter plates (96-Well CytoOne® Plate, CC7672-7596, Starlab S.r.l., Milano, Italy) were prepared by adding a volume of 100 µL of inoculum to 100 µL of treatment. Each AMP dilution was assayed in triplicate; each microplate included triplicate wells for the blank (100 µL of sterile distilled water and 100 µL of sterile MHB II), and 3 to 6 wells for reference control of 100% growth (100 µL of sterile deionized water and 100 µL of MHB II inoculated with the bacterium). Positive controls were performed in triplicate wells with 100 µL of a 10 mg/mL gentamicin solution (G1272, Sigma Aldrich, Milan, Italy) and with 100 µL of a solution containing 10,000 units/mL of penicillin and 10,000 µg/mL of streptomycin (penicillin–streptomycin, 15140-122, Life Technologies, Monza, Italy).
(§4) After a 1-day incubation at 37 °C, the MIC was determined by two distinct methods: (1) optical density measurement and (2) bioluminescence reading. In the first case, the optical density of the microtiter plates was read directly at a wavelength of 600 nm and the MIC was estimated from the curves obtained by plotting the OD measurements. For the bioluminescence reading, after gentle resuspension, 100 µL of each treated culture was transferred to a new 96-well non-treated plate (236105/237105, Life Technologies, Monza, Italy) and the metabolic activity was determined by the kit Bac-Titer Glo Microbial Cell Viability Assay (G8231, Promega Italia S.r.l, Milan, Italy). Optical density and bioluminescence were read by a Modulus II multifunction plate reader (Turner BioSystems, Sunnyvale, CA, USA) or, alternatively, by an Infinite M Plex (Tecan Group Ltd., Männedorf, Switzerland). As earlier described in [24], in the case of luminescence, the MIC was identified from the curves of growth inhibition as the first concentration leading to a 1-log reduction in bacterial growth (i.e., 90% growth inhibition). […]

[2] = test system: E. faecalis cra4024 (EF 01)
From the text: as §1, §2, §3, §4

[3] = test system: E. faecalis cra4033 (EF 02)
From the text: as §1, §2, §3, §4

[4] = test system: S. aureus cra2198 (SA 02)
From the text: as §1, §2, §3, §4

entire panel of strains = test: MBC, all strains of the panel; details: undiluted MHB II, re-tested plating 10 μL
Description: For assessing the MBC, 10 μL of bacterial suspensions was taken from wells corresponding to MIC, 2× MIC, and 4× MIC and then plated on MHA plates. After one day of incubation at 37 °C, the agar plates were examined for bacterial growth. The MBC was determined as the lowest dilution causing absence of bacterial colonies growth on the plate.

[5] = test system: S. epidermidis cra4029 (SE 02); remark: listed apart in the source
From the text: as §1
as §2, with “II. […]” for “II.”
(§5) For assessing the MBC, 10 μL of bacterial suspensions was taken from wells corresponding to MIC, 2× MIC, and 4× MIC and then plated on MHA plates. […] The MBC was determined as the lowest dilution causing absence of bacterial colonies growth on the plate.
(§6) In order to assess the extent of the interference of the culture medium composition with the antibacterial activity of the three peptides, a “Rate of Abatement” of the bactericidal properties (RoA) was calculated using the following formula (Equation (1)):RoA = MBCMHB/MBC20% MHB(1)
(§7) RoA indicates the fold increases in the MBC when tested in undiluted medium […], i.e., with maximal interference of broth polyanionic substances, with respect to diluted medium […]. […] A more versatile measure to express the loss of activity was calculated as follows. […]

E. coli cra4038 (EC) [6] = test system: E. coli cra4038 (EC)
From the text: as §1
as §2, with “II. […]” for “II.”
as §5, §6, §7

[7] = test system: E. faecalis cra4033 (EF 02); remark: listed apart in the source
From the text: as §1
as §2, with “II. […]” for “II.”
as §5, §6, §7

[8] = test system: S. epidermidis cra4029 (SE 02); details: cra4029 (SE 02, 24 h)
From the text: as §1, §2, §3
(§8) The wells of the microplate, initially used for the determination of the MIC, were rinsed twice with 220 µL of phosphate-buffered solution (PBS) to remove loosely attached and planktonic bacteria. A total of 100 µL of fresh PBS and 100 µL of Bac-Titer Glo solution (G8231, Promega Italia S.r.l., Milan, Italy) were added to each well. After a 10 min incubation, a volume of 100 µL was transferred to a new microplate for luminescence determination as described above. As a general rule, the MBIC value was identified as the concentration at which a reduction of at least a log in the metabolic activity was observed.

[9] = test system: P. aeruginosa cra3840 (PA 02)
From the text: as §1, §2, §3, §8

[10] = test system: S. epidermidis cra4034 (SE 01); details: cra4034 (SE 01, 24 h)
From the text: as §1, §2, §3, §8

[11] = test system: S. aureus ATCC 25923 (SA 00); details: ATCC 25923, 24 h
From the text: as §1, §2, §3, §8

[12] = test system: S. aureus cra4030 (SA 01); details: cra4030 (SA 01, 24 h)
From the text: as §1, §2, §3, §8

[13] = test system: E. faecalis cra4024 (EF 01); remark: listed apart in the source
From the text: as §1, §2, §3, §8

E. coli cra4038 (EC) [14] = test system: E. coli cra4038 (EC); remark: listed apart in the source
From the text: as §1, §2, §3, §8

[15] = test system: S. aureus cra2198 (SA 02); details: cra2198 (SA 02, 24 h)
From the text: as §1, §2, §3, §8

`CC(C)C[C@H](NC(=O)CN)C(=O)N[C@@H](CC(C)C)C(=O)N[C@@H](CCCNC(=N)N)C(=O)N[C@@H](C)C(=O)N[C@@H](CO)C(=O)N[C@@H](CO)C(=O)N[C@@H](CCCCN)C(=O)N[C@@H](Cc1c[nH]c2ccccc12)C(=O)NCC(=O)N[C@@H](CCCNC(=N)N)C(=O)N[C@@H](CCCCN)C(=O)N[C@@H](Cc1ccc(O)cc1)C(=O)N[C@@H](Cc1ccc(O)cc1)C(=O)N[C@H](C(=O)N[C@@H](CC(=O)O)C(=O)N[C@@H](CC(C)C)C(=O)N[C@@H](C)C(=O)NCC(=O)N[C@@H](CS)C(=O)N[C@@H](C)C(=O)N[C@@H](CCCCN)C(=O)N[C@@H](C)C(=O)O)C(C)C` [Dadapin-1] (H-GLLRASSKWGRKYYVDLAGCAKA-OH) gave an MIC [1] of over 500 µg/mL, an MIC [2] of over 500 µg/mL and an MIC [3] of over 500 µg/mL. For the same compound, the MIC [4] was 15.63 µg/mL (≈ 6.22 µM), the MBC (entire panel of strains) was “exceeded 500 μg/mL” and the MBC [5] was 15.63 µg/mL (≈ 6.22 µM). For the same compound, the MBC (E. coli cra4038 (EC) [6]) was 31.25 to 62.5 µg/mL, the MBC [7] was over 500 µg/mL and the MBIC [8] was over 500 µg/mL. For the same compound, the “LR, Log10 reduction in bacterial metabolism for a given MBIC” value (shortened to “LR, Log10 reduction”) ([9]; cra3840 (PA 02)) was 3 LR, the MBIC ([9]; cra3840 (PA 02, 24 h)) was over 500 µg/mL and the MBIC [10] was 3.91 to 7.81 µg/mL. The MBIC [11] was 250 to 500 µg/mL, the MBIC [12] was 7.81 to 15.63 µg/mL and the “LR, Log10 reduction” value ([13]; cra4024 (EF 01)) was 3 LR. The MBIC ([13]; cra4024 (EF 01, 24 h)) was over 500 µg/mL, the “LR, Log10 reduction” value (E. coli cra4038 (EC) [14]; cra4038 (EC)) was 2 LR and the MBIC (E. coli cra4038 (EC) [14]; cra4038 (EC, 24 h)) was 15.63–31.25 (31.25) 2LR: 31.25 μg/mL. It also gave an MBIC [15] of 500 µg/mL.
